Laboratory results: patent publication US11578056B2, “Solid forms comprising (S)-2-(2,6-dioxopiperidin-3-yl)-4-((2-fluoro-4-((3-morpholinoazetidin-1-yl)methyl)benzyl)amino)isoindoline-1,3-dione and salts thereof, and compositions comprising and methods of using the same” (Celgene Corporation, priority 2019, dated 2023)

Experiments:
Assay type in all cases: cell-based
[1] = test system: SU-DHL-4 cell line; assay: Cell proliferation and viability assay using SU-DHL-4 cell line (CellTiter-Glo, 1536-well); details: Homo sapiens; SU-DHL-4, 120 hours, Cell Titer-Glo luminescence
Description: Cell Proliferation and Viability Assay Using SU-DHL-4 Cell Line: The following exemplary assay uses a DLBCL cell line, for example, the SU-DHL-4 cell line (Deutsche Sammlung von Mikroorganismen and Zellkulturen GmbH [DSMZ]: catalogue number ACC-495) at 120 hours post-treatment. The seeding density for SU-DHL-4 can be optimized to ensure assay linearity in 1536-well plates.
Increasing concentrations (0.5 nM to 10 μM) of Compound 1 were each spotted in a 20-point dilution fashion (unevenly spaced data points) via an acoustic dispenser (EDC ATS-100) into an empty 1536-well plate. The DMSO concentration was kept constant for a final assay concentration of 0.1% DMSO. […] At the time when exposure of cells to compound began (to), initial viable cell number was assessed via Cell Titer-Gb® Luminescent Cell Viability Assay at a 1 vol: 2 vol ratio according to manufacturer's instructions (Promega Corporation, Madison, Wis.) by quantifying the level of luminescence generated by adenosine-5′-triphosphate (ATP) present in viable cells. After 120 hours, cell viability of the treated cells was assessed via Cell Titer-Gb® and read for luminescence. All growth inhibition curves were processed and evaluated using Activity Base (IDBS, Alameda, Calif.). […]

[2] = test system: KARPAS-1106P cell line; assay: Hematological cell line viability/apoptosis flow cytometry assay; details: KARPAS-1106P (DLBCL PMBL); 120 h
How it was run: (§1)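 After plating, cells receive increasing compound concentrations (0.00015 to 10 μM; final DMSO 0.1%). Following a 120-hour incubation, Annexin V and DRAQ7 staining is quantified by flow cytometry. Curve fitting yields viability IC50/Emax and apoptosis EC50/Ymax, together with AUC values.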

[3] = test system: NU-DHL-1 cell line; assay: as above; details: NU-DHL-1 (DLBCL GCB); 120 h
How it was run: as §1

[4] = test system: PGA1 cell line; assay: as above; details: PGA1 (CLL), 120 h
How it was run: as §1

[5] = test system: Karpas-231 cell line; assay: as above; details: Karpas-231 (ALL), 120 h
Description: Cell Proliferation and Viability Assay Using Hematological Cell Lines: The following exemplary anti-proliferative assay uses exemplary hematological cell lines in the following. The in vitro growth inhibitory activity of Compound 1 described herein was evaluated using a 384-well flow cytometry assay.
The final concentration of DMSO was 0.1% (v/v). Following the addition of Compound 1 or DMSO and incubation for 120 hours, cell number and cell death were analyzed by flow cytometry (Attune®, Thermo Fisher) using Annexin V and the live-cell impermeant DNA dye, DRAQ7. Phosphatidylserine translocates from the inner layer to the outer layer of the cell membrane early in apoptosis and Annexin V binds to the exposed phosphatidylserine found on the surface of an apoptotic cell. The vital dye DRAQ7 is excluded by intact live cells and only stains cells that have died as a result of apoptosis or necrosis.
Flow cytometry data analysis was then performed using the Flow Jo_v10 software to determine the number of viable cells (Annexin V and DRAQ7 double negative staining cells) and percentage of apoptotic cells (Annexin V positive cells) for each condition. The live cell count for every concentration was normalized to the DMSO control (considered as 100%) to calculate the percentage of viable cells remaining after treatment and graphed using GraphPad Prism 7.03. The IC50 (50% inhibitory concentration) and Emax (maximum efficacy achieved) values were then calculated by performing nonlinear regression curve fitting using log(inhibitor) vs. normalized response—variable slope analysis on GraphPad Prism 7.03. Area under the curve (AUC) was calculated by performing area under curve analysis on GraphPad Prism 7.03. Similarly, for apoptosis analysis, the percentage of apoptosis combining both “early” (Annexin V positive and DRAQ7 negative) and “late” apoptosis (Annexin V and DRAQ7 positive) cell gates relative to DMSO was graphed using GraphPad Prism 7.03. The AUC, EC50 (concentration of compound that produces half-maximal apoptosis response) and Ymax (maximal percentage of apoptosis achieved) values from apoptosis curves were calculated by performing area under curve analysis and nonlinear regression curve fitting using log(agonist) vs. normalized response—Variable slope analysis on GraphPad Prism 7.03.
Dose-response proliferation curves for the panel of hematological cell lines and non-linear curve-fit regression were used to determine IC50, AUC, and Emax for % viable cells (Emax for viability varies between 100 at low doses and 0 at high doses, which corresponds to inhibition of all viable cells), and dose-response apoptosis curves were used to determine the EC50, AUC, and Ymax for % apoptosis (Ymax for apoptosis varies from 0 at low doses and 100 at higher doses which corresponds to death of all cells). […] Viability and apoptosis for all cell lines was determined by Annexin V/[…] flow cytometry.

O=C1CC[C@H](N2C(=O)c3cccc(NCc4ccc(CN5CC(N6CCOCC6)C5)cc4F)c3C2=O)C(=O)N1 [Compound 1, (S)-2-(2,6-dioxopiperidin-3-yl)-4-((2-fluoro-4-((3-morpholinoazetidin-1-yl)methyl)benzyl)amino)isoindoline-1,3-dione]
IC50 [1]: < 200 nM
% Viable Cells AUC [2]: 22.22
% Viable Cells Emax [2]: 0.1698%
Apoptosis AUC [2]: 885.2
Apoptosis Ymax [2]: 97.08%
% Viable Cells AUC [3]: 12.37
% Viable Cells Emax [3]: 0.4919%
Apoptosis AUC [3]: 981.8
Apoptosis Ymax [3]: 99.17%
% Viable Cells AUC [4]: 736.7
% Viable Cells Emax [4]: 69.21%
Apoptosis AUC [4]: 48.94
Apoptosis Ymax [4]: 5.075%
EC50 [4]: 122 nM
IC50 ([4]; read-out: % Viable Cells IC50): > 10000 nM
% Viable Cells AUC [5]: 449.4
% Viable Cells Emax [5]: 0%
Apoptosis AUC [5]: 5.720
Apoptosis Ymax [5]: 5.00%
EC50 [5]: 896000 nM
IC50 ([5]; read-out: % Viable Cells IC50): 484 nM
